These are literature values, as cited in patent US10149828B2, “Oxybutynin transdermal therapeutic system combination” (priority 2015, dated 2018).

For series [1] the following is noted: administered orally to mice.
The conditions of series [2]: [14C] oxybutynin, transdermal, rats.
The conditions of series [3]: open-label, titrated to 6 mg twice daily, 26 weeks.
For series [4] the following is noted: compared to placebo over six months; pivotal clinical trials.

In the case of `CCN(CC)CC#CCOC(=O)C(O)(c1ccccc1)C1CCCCC1` (stereo not drawn) [oxybutynin, 4-diethylaminobut-2-ynyl 2-cyclohexyl-2-hydroxy-2-phenylethanoate], in series [1], the “crossing of the Blood-Brain-Barrier” value is “has been shown to cross the Blood-Brain-Barrier”. Further, the “radiolabel in the brain” value in series [2] is listed as “presence of radiolabel in the brain”.

In the case of `CCN(C)C(=O)Oc1cccc([C@H](C)N(C)C)c1` [rivastigmine, (S)-N-Ethyl-N-methyl-3-[1-(dimethylamino)ethyl]-phenyl carbamate], in series [3], the “cognitive functions in PD patients with dementia” value was “may improve” and the “motor function in PD patients with dementia” value was “no worsening”. Moreover, in series [4], the “improvement on the 30-point Mini-Mental Status Examination (MMSE)” value is 1-1.5 point and the “improvement on the 70-point cognitive subscale of the Alzheimer's Disease Assessment Scale (ADAS-Cog)” value was approximately 2.8 point.
